From patent US20220177538A1, “CO-AGONISTS AT GLP-1 AND GIP RECEPTORS SUITABLE FOR ORAL DELIVERY” (Novo Nordisk A/S, priority 2020, published 2022) come the findings set out here.

Read-outs that look alike come from different tables or passages of the source. Starred links: 1 amine or outer side, 2 acyl side, 3 side chain; linkers in the order of their positions; H or OH if unused. Non-standard residues stand in square brackets, D forms with d. Residues, ends and D or L forms follow the SMILES beside them. Groups on a side chain read outwards from the residue. *: point of attachment. C18 diacid = O=C(O)CCCCCCCCCCCCCCCCC(=O)*; γGlu = O=C(O)[C@H](CCC(=O)[*:2])N[*:1]; εLys = N[C@@H](CCCCN[*:1])C(=O)[*:2]; Aib = CC(C)(N)C(=O)O

The target in one series is T1, human GIP receptor (Homo sapiens, UniProt P48546).
T1 construct: expressed in transfected cells; host or cells: BHK (parent line BHKTS13), clone BHK CRE luc2P hGIPR
T1 sequence (P48546 22-466): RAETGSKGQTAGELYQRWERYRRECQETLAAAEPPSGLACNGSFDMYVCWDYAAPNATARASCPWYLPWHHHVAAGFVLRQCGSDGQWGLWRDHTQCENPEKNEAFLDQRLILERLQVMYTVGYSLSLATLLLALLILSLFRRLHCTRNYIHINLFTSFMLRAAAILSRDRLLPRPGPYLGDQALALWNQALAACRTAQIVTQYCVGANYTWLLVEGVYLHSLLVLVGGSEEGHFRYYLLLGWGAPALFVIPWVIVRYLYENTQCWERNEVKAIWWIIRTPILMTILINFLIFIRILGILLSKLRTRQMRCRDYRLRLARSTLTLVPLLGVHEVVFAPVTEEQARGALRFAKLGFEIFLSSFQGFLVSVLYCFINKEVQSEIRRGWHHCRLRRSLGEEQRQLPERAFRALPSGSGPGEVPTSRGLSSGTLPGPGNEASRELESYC
In words: In vitro functional potency, CRE luciferase reporter, whole BHK cells (hGIPR). The format is cell-based. To be noted: BHK CRE luc2P hGIPR cells. The method, boiled down:
(§1)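 BHK CRE luc2P cells stably expressing hGIPR or hGLP-1R were seeded at 5000 cells/well overnight. They were treated 3 h at 37° C with a 12-point, 3.5-fold compound series in buffer with or without HSA, and luciferase luminescence was read. Values come from log(agonist)-response regression, averaging at least two replicates.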

A short description of series [1]: Pharmacokinetic study in dogs after oral dosing of tablets with SNAC. Type of series: in vivo, Beagle dogs. To be noted: for Tmax / half-life: male, Beagle. The protocol: The purpose of this example is to determine the half-life and plasma exposure in vivo of the compounds of the present invention after p.o. administration to beagle dogs, i.e. the terminal half-life and concentration of test substance that reaches circulation with time. This is done in a pharmacokinetic (PK) study, where these parameters of the compound in question are determined. By terminal half-life is generally meant the period of time it takes to halve a certain plasma concentration, measured after the initial distribution phase.
The amount of SNAC in the tablet composition was 100-300 mg, the amount of magnesium stearate in the tablet composition was 7.7 mg, and the target amount of each test substance in the tablet composition was 3-4 mg.
Male beagle dogs, 1-7 years of age and weighing 9-17 kg during the study period, were included in the study. The dogs were dosed in a fasting state. The dogs were group housed in pens (12 hours light: 12 hours dark), and fed individually and restrictedly once daily with Royal Canin Medium Adult dog food (Royal Canin Products, China Branch, or Brogaarden A/S, Denmark). The dogs were used for repeated PK studies with a suitable wash-out period between successive dosing. An appropriate acclimatization period was given prior to initiation of the first PK study. All handling, dosing, and blood sampling of the animals were performed by trained and skilled staff. Before the studies, the dogs were fasted overnight and from 0 to 4 hours after dosing. The dogs were restricted to water 1 hour before dosing until 4 hours after dosing, but otherwise had ad libitum access to water during the whole period.
The compositions were administered by a single oral dosing to the dogs in groups of 6-8 dogs. […] The mouth was then closed, and 10 mL of tap water was given by syringe or gavage to facilitate swallowing of the tablet.
One blood sample was drawn before dosing, and additional samples were drawn at predefined time points after dosing for up to 240 hours, such as up to 10 hours, to adequately cover the full plasma concentration-time absorption profile of the test substance. For each blood sample time point, approximately 0.8 mL of whole blood was collected in a 1.5 mL EDTA-coated tube, which was gently turned to mix the sample with EDTA. Blood samples were collected in EDTA buffer (8 mM) and then centrifuged at 4° C. 2000 g for 10 minutes. Plasma was pipetted into Micronic tubes on dry ice, and kept at −20° C. or lower until analysis. Blood samples were taken as appropriate, for example from a venflon in the cephalic vein in the front leg for the first 2 hours and then with syringe from the jugular vein for the rest of the time points. The first few drops were allowed to drain from the venflon to avoid heparin saline from the venflon in the sample.
All blood samples were collected into test tubes containing EDTA for stabilisation and kept on ice until centrifugation. Plasma was separated from whole blood by centrifugation and the plasma was stored at −20° C. or lower until analysis.
The plasma was analysed for test substance using LC-MS (Liquid Chromatography-Mass Spectrometry) as known to the person skilled in the art. […] RP-HPLC separation was achieved using a linear gradient of 1:1 acetonitrile/methanol in 1% aqueous formic acid using either: a Phenomenex Onyx Monolithic C18 column (50×2.0 mm) and a flow rate of 0.8 mL/min at 30° C.; or an Agilent Poroshell 120 SB-C18 column (50×2.1 mm, 2.7 μm) at a flow rate of 0.4 mL/min at 60° C. The mass spectrometer was operated in either positive ionization SIM mode or positive ionization PRM mode.
For each individual animal, a plasma concentration-time profile was analysed by a non-compartmental model in Pharsight Phoenix WinNonLin ver.

A further series concerns the target human GLP-1 receptor (Homo sapiens, UniProt P43220). The series is described as follows: In vitro functional potency, CRE luciferase reporter, whole BHK cells (hGLP-1R). The format is cell-based. The arrangement: expressed in transfected cells; host or cells: BHK (parent line BHKTS13), clone BHK CRE luc2P hGLP-1R. To be noted: BHK CRE luc2P hGLP-1R cells. The method, boiled down:
as §1

The mark [2] stands for this setting: 0% HSA, read-out: hGIPR, CRE Luc 0% HSA EC50.
The mark [3] stands for this setting: hGIPR, CRE Luc 1% HSA EC50, 1% HSA.
The mark [4] stands for this setting: 0% HSA, read-out: hGLP-1R, CRE Luc 0% HSA EC50.
Setting [5] is: hGLP-1R, CRE Luc 1% HSA EC50, 1% HSA.

Chain of human GLP-1 receptor (P43220 24-463): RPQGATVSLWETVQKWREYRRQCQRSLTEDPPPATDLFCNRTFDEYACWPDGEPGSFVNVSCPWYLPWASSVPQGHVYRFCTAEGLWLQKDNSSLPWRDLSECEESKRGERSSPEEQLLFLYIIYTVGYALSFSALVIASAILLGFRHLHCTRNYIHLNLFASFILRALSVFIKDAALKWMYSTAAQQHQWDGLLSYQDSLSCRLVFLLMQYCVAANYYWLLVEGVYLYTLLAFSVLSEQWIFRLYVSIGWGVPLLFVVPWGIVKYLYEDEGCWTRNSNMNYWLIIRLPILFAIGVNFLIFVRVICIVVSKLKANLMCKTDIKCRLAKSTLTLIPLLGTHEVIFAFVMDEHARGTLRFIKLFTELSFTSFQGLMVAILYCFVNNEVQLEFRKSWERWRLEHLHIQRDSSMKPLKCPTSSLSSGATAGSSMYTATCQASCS

As for `CC[C@H](C)[C@H](NC(=O)[C@H](Cc1ccccc1)NC(=O)[C@H](CCC(=O)O)NC(=O)[C@H](Cc1c[nH]cn1)NC(=O)[C@H](C)NC(=O)[C@H](C)NC(=O)[C@H](CCC(N)=O)NC(=O)[C@H](CCCCNC(=O)[C@@H](N)CCCCNC(=O)[C@@H](N)CCCCNC(=O)CC[C@H](NC(=O)CCCCCCCCCCCCCCCCC(=O)O)C(=O)O)NC(=O)[C@H](CCC(=O)O)NC(=O)[C@H](CC(C)C)NC(=O)[C@H](CC(C)C)NC(=O)[C@@H](NC(=O)[C@H](CO)NC(=O)[C@H](Cc1ccc(O)cc1)NC(=O)[C@H](CC(=O)O)NC(=O)[C@H](CO)NC(=O)[C@@H](NC(=O)[C@H](Cc1ccccc1)NC(=O)[C@@H](NC(=O)CNC(=O)[C@H](CCC(=O)O)NC(=O)C(C)(C)NC(=O)[C@@H](N)Cc1ccc(O)cc1)[C@@H](C)O)[C@@H](C)O)[C@@H](C)CC)C(=O)N[C@@H](CCC(=O)O)C(=O)N[C@@H](Cc1c[nH]c2ccccc12)C(=O)N[C@@H](CC(C)C)C(=O)N[C@@H](CC(C)C)C(=O)N[C@@H](C)C(=O)NCC(=O)NCC(=O)N1CCC[C@H]1C(=O)N[C@@H](CO)C(=O)N[C@@H](CO)C(=O)NCC(=O)N[C@@H](C)C(=O)N1CCC[C@H]1C(=O)N1CCC[C@H]1C(=O)N1CCC[C@H]1C(=O)N[C@@H](CO)C(=O)O` [Compound 30] (H-Y[Aib]EGTFTSDYSILLEK([εLys-εLys-γGlu-C18 diacid])QAAHEFIEWLLAGGPSSGAPPPS-OH), at human GIP receptor (setting [2]), the EC50 is 0.0032 nM. Also, on human GIP receptor (setting [3]), a half-maximal response (EC50) required 0.185 nM. Also, in series [1] (dog, in vivo, po), the AUC/Dose was 6.5 kg·h/L, the Cmax/Dose is recorded as 0.24 kg/L, the Tmax came out at 0.8 h and the half-life was 81 h. In addition, the EC50 on human GLP-1 receptor (setting [4]) was found to be 0.0073 nM. In addition, on human GLP-1 receptor (setting [5]), the EC50 was 0.267 nM.
As to `CC[C@H](C)[C@H](NC(=O)[C@H](Cc1ccccc1)NC(=O)[C@H](CCC(=O)O)NC(=O)[C@H](CCCNC(=N)N)NC(=O)[C@H](C)NC(=O)[C@H](C)NC(=O)[C@H](CCC(N)=O)NC(=O)[C@H](CCC(=O)O)NC(=O)[C@H](CCC(=O)O)NC(=O)[C@H](CC(C)C)NC(=O)[C@H](CC(C)C)NC(=O)[C@@H](NC(=O)[C@H](CO)NC(=O)[C@H](Cc1ccc(O)cc1)NC(=O)[C@H](CC(=O)O)NC(=O)[C@H](CO)NC(=O)[C@@H](NC(=O)[C@H](Cc1ccccc1)NC(=O)[C@@H](NC(=O)CNC(=O)[C@H](CCC(=O)O)NC(=O)C(C)(C)NC(=O)[C@@H](N)Cc1ccc(O)cc1)[C@@H](C)O)[C@@H](C)O)[C@@H](C)CC)C(=O)N[C@@H](CCC(=O)O)C(=O)N[C@@H](Cc1c[nH]c2ccccc12)C(=O)N[C@@H](CC(C)C)C(=O)N[C@@H](CC(C)C)C(=O)N[C@@H](C)C(=O)NCC(=O)NCC(=O)N1CCC[C@H]1C(=O)N[C@@H](CO)C(=O)N[C@@H](CCCCNC(=O)[C@@H](N)CCCCNC(=O)[C@@H](N)CCCCNC(=O)CC[C@H](NC(=O)CCCCCCCCCCCCCCCCC(=O)O)C(=O)O)C(=O)NCC(=O)N[C@@H](C)C(=O)N1CCC[C@H]1C(=O)N1CCC[C@H]1C(=O)N1CCC[C@H]1C(=O)N[C@@H](CO)C(=O)O` [Compound 43] (H-Y[Aib]EGTFTSDYSILLEEQAAREFIEWLLAGGPSK([εLys-εLys-γGlu-C18 diacid])GAPPPS-OH), the EC50 on human GIP receptor (setting [2]) came to 0.0056 nM; on human GIP receptor (setting [3]) it was 0.445 nM; on human GLP-1 receptor (setting [4]) it was 0.004 nM; on human GLP-1 receptor (setting [5]) it was 0.359 nM. The Tmax in series [1] (dog, in vivo, po) was found to be 1.5 h. In addition, in series [1] (dog, in vivo, po), the half-life was 131 h. This compound also gave an AUC/Dose in series [1] (oral tablet, SNAC 300 mg, test substance 3 mg, Beagle dogs, arithmetic mean) of 21.4 kg·h/L.
